In one assay the target is T1, α-Synuclein aggregates (Homo sapiens, UniProt P37840).
T1 construct: purchased Proteos Inc RP-002
Kind of assay: Fluorescence binding assay with protein aggregates (fluorescence spectrophotometer). The note with it: compound 5 µM, 37°C, 5 min. The method, then:
(§1) First, the compound was a final concentration of 5 µM by dissolved in 50 mM Tris-buffer (pH 7.0) with 0.0025% (v/v) DMSO. Then, Aβ, α-Synuclein, and Tau aggregates were added, with their final concentrations being 0.02, 0.04, 0.08, 0.16, 0.32, 0.64, and 1.28 µM, respectively. Subsequently, the fluorescence measurements were detected using a fluorescence spectrophotometer (Horiba, Fluorolog3).
α-synuclein Aggregates (Proteos Inc; catalog No.: RP-002).
(§2) Tau aggregates: The cDNA sequence of Tau was inserted into a plasmid carrying a GST tag, which was then transfected into BL21 bacteria for protein expression. Bacterial pellets were resuspended in high-salt buffer (0.75 M NaCl, 50 mM Tris, pH 7.4, 1 mM EDTA), sonicated, and centrifuged at 70,000 x g for 30 min. The supernatants were applied onto a Glutathione sepharose beads column (GE Healthcare) and purified by GST tag. Thrombin was used to remove the GST tag. The protein was dialyzed with FPLC buffer (50 mM NaCl, 50 mM Tris- HCl pH 7.4). The protein was filtered through a 0.22 µm syringe filter. The concentration of Tau was adjusted to 3 mg/mL, 12.5 µM heparin was added, and the mixture was shaken at 37 °C and 300 rpm for 7 days to prepare Tau aggregates. • Incubation Concentrations: 0.02, 0.04, 0.08, 0.16, 0.32, 0.64, and 1.28 µM; • Incubation Temperature: 37°C; • Incubation Duration: 5 min; • Detection Wavelengths: [formula]
(§3) Statistical analysis was performed using GraphPad Prism® version 8.2.1.

In assay [1] the target is T2, Aβ aggregates (Homo sapiens, UniProt P05067).
T2 construct: Aβ (1-42) peptide (rPeptide; catalog No.: A-1163-1); purchased rPeptide A-1163-1
The description is as above. The settings on record: Aβ aggregates; compound 5 µM, 37°C, 5 min. As to the method: as §1
(§4) Aβ PFF: Aβ (1-42) peptide (rPeptide; catalog No.: A-1163-1) was resolved in 9 volumes of ice-cold distilled water and vortexed occasionally. After 30 min, one volume of 10X fibril-forming buffer (0.2 M NaPi, 1.5 M NaCl, 0.2% NaN3, pH 7.5) was added. The final concentration of peptide was 1 mg/ml. The solution was incubated at 37 °C for one week.
as §2, §3

For assay [2], the system named is Aβ aggregates. The assay is described as above. The note with it: Kd for Aβ to Kd for α-Synuclein. The method, then: as §1, §4, §2, §3
For another assay, the target named is Tau aggregates (Homo sapiens, UniProt P10636). The description is as above. The settings on record: 5 min; for Ratio / α-Synuclein: Kd for Tau to Kd for α-Synuclein; for Kd: Tau aggregates, compound 5 µM, 37°C. As to the method: as §1, §2, §3
A further assay concerns α-Syn aggregated neurons. Kind of assay: Staining of primary cultured neurons infected with AAV α-Syn and treated with α-Syn PFFs, fluorescence microscopy. Format: cell-based, Sprague-Dawley rats. The settings on record: compounds 0.1 mM; Fig. 1. As to the method:
Primary cultured neurons were infected with adeno-associated virus (AAV) encoding a-Syn for 7 days and then treated with a-Syn PFFs. The candidate compounds were added to the primary neurons with the indicated aggregates and analyzed using fluorescence microscopy.
Primary hippocampal neurons were isolated from […] pregnant rats. The Sprague-Dawley rats were used at embryonic E18 days. The cortical tissue was isolated, dissociated, and incubated with 5 ml of D-Hanks containing 0.25% trypsin for 5 min at 37 °C in a humidified atmosphere of 5% CO2, centrifuged at 1000 x g for 5 min after addition of 4 ml of the neuronal plating medium containing DMEM/F12 with 10% fetal bovine serum. The 1 × 10^5 cells were plated in 6-well plates for further process. DIV7 neurons were infected with AAV α-Syn FL virus and at DIV12, the neurons were transduced with 100 ng/ml α-Syn PFF, α-Syn 1-140 were incubated with the cultured primary neurons in sterile PBS to a final concentration of 0.1 mg/ml. Sonicated PFFs, or an equivalent volume of the monomer as a control, were transferred into pre-warmed neuronal medium at a final concentration of 100 ng/ml. The samples were immune-stained with anti-p-α-Syn S129 (Abcam; Catalog No.: ab59264) (pseudo-colors were converted to red) to detect a-Syn aggregates and then stained with ThT (Sigma; Catalog No.: S96200) or compounds (0.1 mM).

A further assay has as its target T3, p-α-Syn S129 (Homo sapiens, UniProt P37840).
T3 construct: from tissue; host or cells: human DLB patient brain sections
Kind of assay: Ex vivo staining of human DLB patient brain sections. The settings on record: DLB patient brain slides; Fig. 3. It counts as binding. The method, then:
(§5) The ex vivo screening was extended into human DLB, and AD patient samples. Neurodegenerative diseases of DLB belong to synucleino-pathies with well-defined Lewy bodies. Therefore, the positive compounds should show robust signals with LBs and LNs.
(§6) For immunohistochemical staining, deparaffinized and antigen-retrieved 20 µm-thick human brain sections were treated with 0.3% H2O2 at room temperature for 10 min. Subsequently, the sections were washed in PBS with 0.3% Triton X-100 3 times and then blocked with 1% BSA for 30 min, followed by overnight incubation with anti-Aβ/AT8/α-Syn pS129 antibody at 4 °C. The signal was developed using a Histostain-SP kit (Invitrogen, Catalog No.: 95-9943). After washing, the sections were covered with a glass cover using mounting solution.

The subject of the next assay is AT8-positive NFTs. Kind of assay: Ex vivo staining of human AD patient brain sections. It counts as binding. The note with it: AD brains; Fig. 3. As to the method: as §5, §6
In a further assay the test system is Aβ plaques. The description is as above. It counts as binding. The settings on record: AD brains; Fig. 3. The method, then:
as §5, §6

Structures are written as SMILES.

T2 sequence (P05067 672-713): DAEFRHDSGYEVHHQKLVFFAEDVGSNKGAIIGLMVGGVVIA
Sequence of Tau aggregates (P10636 with tags, fused parts or gaps): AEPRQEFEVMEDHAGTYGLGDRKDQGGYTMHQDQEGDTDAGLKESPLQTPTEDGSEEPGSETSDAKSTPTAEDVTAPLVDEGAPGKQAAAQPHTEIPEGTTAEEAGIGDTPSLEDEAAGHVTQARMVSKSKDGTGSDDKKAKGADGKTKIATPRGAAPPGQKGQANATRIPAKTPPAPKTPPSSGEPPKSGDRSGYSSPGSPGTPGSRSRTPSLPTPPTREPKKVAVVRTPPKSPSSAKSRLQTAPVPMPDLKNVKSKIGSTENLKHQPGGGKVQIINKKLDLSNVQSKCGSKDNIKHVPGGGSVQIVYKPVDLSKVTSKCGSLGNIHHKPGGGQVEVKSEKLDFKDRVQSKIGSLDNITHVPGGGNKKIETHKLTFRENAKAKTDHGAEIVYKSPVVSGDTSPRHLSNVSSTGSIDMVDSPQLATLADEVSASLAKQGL

Turning to `COc1c(/C=C/c2nc3cc(C)c(N(C)CCOCCF)cc3s2)ccc(O)c1Br` [Compound E, (E)-2-bromo-4-(2-(6-((2-(2-fluoroethoxy)ethyl)(methyl)amino)-5-methylbenzo[d]thiazol-2-yl)vinyl)-3-methoxyphenol], the Kd (usually a measure of binding affinity in units of concentration) at α-Synuclein aggregates stood at 15.6 nM; on Aβ aggregates [1] it was 87.2 nM; at Tau aggregates, 36.5 nM. The “Ratio / α-Synuclein” value in the assay with Aβ aggregates [2] is reported as 5.59; at Tau aggregates it was 2.34. Also, in the assay on α-Syn aggregated neurons, the “signals in α-Syn aggregated neurons” value is recorded as “selectively yielded positive signals”. For the same compound, on p-α-Syn S129, the “costaining with p-α-Syn S129” value was “costained”. The “staining of AT8-positive NFTs” value with AT8-positive NFTs is given as “did not stain”. The “staining of Aβ plaques” value with Aβ plaques is listed as “did not stain”.
Take `CCN(CCOCCF)c1cc2sc(/C=C/c3ccc(O)c(Br)c3)nc2cc1C` [Compound R, (E)-2-bromo-4-(2-(6-(ethyl(2-(2-fluoroethoxy)ethyl)amino)-5-methylbenzo[d]thiazol-2-yl)vinyl)phenol]: the equilibrium dissociation constant (Kd) on α-Synuclein aggregates worked out at 80.9 nM; at Aβ aggregates [1], 1270 nM; at Tau aggregates, 2600 nM. Moreover, the “Ratio / α-Synuclein” value with Aβ aggregates [2] came to 15.74; at Tau aggregates, 32.13. For the same compound, in the assay with α-Syn aggregated neurons, the “signals in α-Syn aggregated neurons” value was “selectively yielded positive signals”. Also, on p-α-Syn S129, the “costaining with p-α-Syn S129” value was “costained”. Further, in the assay on AT8-positive NFTs, the “staining of AT8-positive NFTs” value is “did not stain”. The “staining of Aβ plaques” value with Aβ plaques is given as “did not stain”.
Consider `Cc1cc2nc(/C=C/c3ccc(O)c(N)c3)sc2cc1N(C)CCOCCF` [Compound C, (E)-2-amino-4-(2-(6-((2-(2-fluoroethoxy)ethyl)(methyl)amino)-5-methylbenzo[d]thiazol-2-yl)vinyl)phenol], for which the Kd on α-Synuclein aggregates was 314 nM; at Aβ aggregates [1], 1510 nM; at Tau aggregates, 626 nM. For the same compound, the “Ratio / α-Synuclein” value in the assay with Aβ aggregates [2] is 4.80; at Tau aggregates it was 2.00. For the same compound, the “signals in α-Syn aggregated neurons” value in the assay on α-Syn aggregated neurons is given as “selectively yielded positive signals”. Further, on p-α-Syn S129, the “costaining with p-α-Syn S129” value is “costained”. In addition, the “staining of AT8-positive NFTs” value in the assay on AT8-positive NFTs is on record as “did not stain”. In addition, the “staining of Aβ plaques” value in the assay on Aβ plaques is “did not stain”.
